The target of series [1] is histone deacetylase, subtype 1 (HDAC1) (Homo sapiens (Human), UniProt Q13547). In words: HDAC1-Flag in vitro deacetylation assay. Format: biochemical. The settings on record: means of n ≧ 2 experiments; read-out: HDAC1 IC50. A digest of the protocol: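 Enzyme: Flag epitope-tagged human HDAC1 complex immunopurified from stably expressing mammalian cells. Substrate carries an acetylated lysine side chain; deacetylation yields a fluorophore proportional to activity, measured as fluorescence.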
Sequence of histone deacetylase, subtype 1 (HDAC1) (Q13547 whole entry): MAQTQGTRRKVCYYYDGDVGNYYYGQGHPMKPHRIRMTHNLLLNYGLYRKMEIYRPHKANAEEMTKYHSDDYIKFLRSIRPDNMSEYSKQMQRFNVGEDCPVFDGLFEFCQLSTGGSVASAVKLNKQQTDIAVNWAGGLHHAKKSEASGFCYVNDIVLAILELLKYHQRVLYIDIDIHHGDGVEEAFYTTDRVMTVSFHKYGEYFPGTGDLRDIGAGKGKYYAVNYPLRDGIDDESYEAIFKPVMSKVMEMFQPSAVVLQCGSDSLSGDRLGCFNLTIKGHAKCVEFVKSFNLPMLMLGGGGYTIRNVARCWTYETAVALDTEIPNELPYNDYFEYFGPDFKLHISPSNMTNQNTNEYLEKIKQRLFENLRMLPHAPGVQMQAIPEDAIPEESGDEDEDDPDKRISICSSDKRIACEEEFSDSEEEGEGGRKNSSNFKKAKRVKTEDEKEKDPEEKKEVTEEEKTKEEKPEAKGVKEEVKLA

A further series has as its target IKr ion channel (Homo sapiens (Human), UniProt Q12809). Description: Displacement binding assay using radio-labeled MK-499. The source says: (§1) The ancillary pharmacology profiles of the SHI-1:2 carbamate analogs were also gathered to investigate off-target activities (Table 12).
Another series has as its system HCT-116. In words: HCT-116 anti-proliferation (GI50). Format: cell-based, human. The settings on record: means of n ≧ 2 experiments. The procedure: The novel compounds of the present invention were tested for their ability to inhibit proliferation of the human cervical cancer (HeLa) and colon carcinoma (HCT116) cells.
In this assay, also referred to as the Vialight Assay, cellular ATP levels are measured as a means of quantifying cellular proliferation. This assay makes use of a bioluminescent method from Cambrex (ViaLight PLUS, cat. #LT07-121). In the presence of ATP, luciferase converts luciferin to oxyluciferin and light. The amount of light produced (emission at 565 nm) is measured and correlates with a relative amount of proliferation. Human cervical cancer (HeLa) or colon carcinoma (HCT116) cells were incubated with vehicle or increasing concentrations of compound for 48, 72 or 96 hours. Cell proliferation was quantified by adding the cell lysis reagent (provided in the Vialight assay kit) directly to culture wells, followed by addition of the ATP-monitoring reagent (containing luciferase/luciferin). The amount of light produced is then measured (emission at 565 nm). The quantity of light produced, as measured by […], is directly proportional to the number of living cells in culture. […]

The target in a further series is CYP2C9 (Homo sapiens (Human), UniProt P11712). In words: CYP inhibition potential, CYP2C9. Format: in vitro ADME.
Sequence of CYP2C9 (P11712 whole entry): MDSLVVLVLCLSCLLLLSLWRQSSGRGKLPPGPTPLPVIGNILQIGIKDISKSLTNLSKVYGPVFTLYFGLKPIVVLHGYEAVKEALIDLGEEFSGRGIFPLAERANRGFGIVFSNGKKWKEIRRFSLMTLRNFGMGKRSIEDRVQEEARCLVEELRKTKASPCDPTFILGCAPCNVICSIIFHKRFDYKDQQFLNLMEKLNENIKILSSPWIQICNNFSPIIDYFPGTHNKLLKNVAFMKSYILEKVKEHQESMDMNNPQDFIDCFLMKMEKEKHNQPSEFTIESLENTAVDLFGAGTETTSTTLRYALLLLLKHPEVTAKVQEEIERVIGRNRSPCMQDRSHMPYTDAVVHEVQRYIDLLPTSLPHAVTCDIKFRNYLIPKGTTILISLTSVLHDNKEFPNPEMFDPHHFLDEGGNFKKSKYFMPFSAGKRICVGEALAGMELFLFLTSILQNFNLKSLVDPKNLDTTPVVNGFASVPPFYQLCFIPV
Description: as §1

In a further series the target is CYP2D6 (Homo sapiens (Human), UniProt P10635). Description: CYP inhibition potential, CYP2D6. Format: in vitro ADME.
Sequence of CYP2D6 (P10635 whole entry): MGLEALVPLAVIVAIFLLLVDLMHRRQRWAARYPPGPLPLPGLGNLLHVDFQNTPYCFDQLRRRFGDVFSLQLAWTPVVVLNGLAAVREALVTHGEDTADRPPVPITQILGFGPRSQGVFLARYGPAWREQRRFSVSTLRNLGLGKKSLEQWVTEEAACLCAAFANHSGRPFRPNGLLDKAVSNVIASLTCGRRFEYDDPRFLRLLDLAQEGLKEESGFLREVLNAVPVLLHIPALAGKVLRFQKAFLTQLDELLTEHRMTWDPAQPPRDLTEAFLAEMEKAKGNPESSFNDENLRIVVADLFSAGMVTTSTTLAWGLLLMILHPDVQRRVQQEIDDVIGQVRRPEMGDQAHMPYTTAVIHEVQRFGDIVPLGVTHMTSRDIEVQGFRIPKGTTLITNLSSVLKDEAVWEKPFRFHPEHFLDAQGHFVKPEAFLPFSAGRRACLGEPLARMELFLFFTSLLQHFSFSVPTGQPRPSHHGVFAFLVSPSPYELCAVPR
Description: as §1

The next series addresses CYP3A4 (Homo sapiens (Human), UniProt P08684). In words: CYP inhibition potential, CYP3A4. Type of series: in vitro ADME.
Description: as §1

pIC50: −log10 of the molar value.

Sequence of IKr ion channel (Q12809 whole entry): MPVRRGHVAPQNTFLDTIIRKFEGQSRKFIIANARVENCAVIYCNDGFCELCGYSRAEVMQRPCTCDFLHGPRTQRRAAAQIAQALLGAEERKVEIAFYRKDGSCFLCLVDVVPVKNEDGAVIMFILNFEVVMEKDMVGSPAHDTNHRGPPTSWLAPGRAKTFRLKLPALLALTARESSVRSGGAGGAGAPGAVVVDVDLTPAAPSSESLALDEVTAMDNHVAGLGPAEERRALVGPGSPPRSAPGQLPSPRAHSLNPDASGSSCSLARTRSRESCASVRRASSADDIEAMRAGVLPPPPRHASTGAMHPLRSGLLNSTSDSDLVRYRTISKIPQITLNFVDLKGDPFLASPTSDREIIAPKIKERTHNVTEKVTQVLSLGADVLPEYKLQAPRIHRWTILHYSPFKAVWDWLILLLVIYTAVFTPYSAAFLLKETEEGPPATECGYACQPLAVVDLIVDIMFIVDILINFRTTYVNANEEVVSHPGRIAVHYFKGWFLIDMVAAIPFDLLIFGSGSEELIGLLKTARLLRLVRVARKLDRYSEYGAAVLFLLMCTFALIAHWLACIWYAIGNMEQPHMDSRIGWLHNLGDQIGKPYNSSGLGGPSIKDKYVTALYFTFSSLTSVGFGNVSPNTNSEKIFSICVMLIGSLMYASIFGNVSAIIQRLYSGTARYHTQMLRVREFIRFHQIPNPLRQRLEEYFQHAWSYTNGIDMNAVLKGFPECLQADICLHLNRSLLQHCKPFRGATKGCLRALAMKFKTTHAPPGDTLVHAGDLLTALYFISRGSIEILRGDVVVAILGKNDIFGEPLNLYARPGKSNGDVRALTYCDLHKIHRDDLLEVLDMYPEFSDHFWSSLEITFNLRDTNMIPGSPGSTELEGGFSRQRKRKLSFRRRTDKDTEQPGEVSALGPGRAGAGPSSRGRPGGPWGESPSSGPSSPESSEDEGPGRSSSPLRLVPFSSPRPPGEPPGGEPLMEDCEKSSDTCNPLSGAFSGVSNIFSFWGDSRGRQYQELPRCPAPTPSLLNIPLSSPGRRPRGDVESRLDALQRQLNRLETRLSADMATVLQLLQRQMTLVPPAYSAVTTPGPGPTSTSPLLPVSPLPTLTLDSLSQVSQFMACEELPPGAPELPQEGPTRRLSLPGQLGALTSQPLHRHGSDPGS
Sequence of CYP3A4 (P08684 whole entry): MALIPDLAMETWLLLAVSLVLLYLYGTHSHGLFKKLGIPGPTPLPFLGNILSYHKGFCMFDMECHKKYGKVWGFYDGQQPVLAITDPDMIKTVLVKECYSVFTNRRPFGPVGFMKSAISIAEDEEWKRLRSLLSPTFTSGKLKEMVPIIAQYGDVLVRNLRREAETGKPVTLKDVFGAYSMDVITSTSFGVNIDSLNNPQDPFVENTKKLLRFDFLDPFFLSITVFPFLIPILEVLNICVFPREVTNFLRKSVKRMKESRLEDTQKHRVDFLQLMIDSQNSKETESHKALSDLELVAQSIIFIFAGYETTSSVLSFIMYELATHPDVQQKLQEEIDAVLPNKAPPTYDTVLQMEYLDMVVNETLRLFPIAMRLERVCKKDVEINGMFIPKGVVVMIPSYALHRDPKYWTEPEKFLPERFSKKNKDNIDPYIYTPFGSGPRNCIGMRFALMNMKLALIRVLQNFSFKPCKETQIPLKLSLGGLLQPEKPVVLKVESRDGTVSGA

For the compound `CCOC(=O)NCc1ccc(C(=O)Nc2cc(-c3ccccc3)ccc2N)cc1` [Example 14e], the pIC50 (in general, −log10 of the IC50, conventionally taken in molar units) in series [1] was 7.89. The “% MK-499 Binding Inhibition @ 10 μM” value at IKr ion channel is listed as 40%. Further, in the series with HCT-116, the GI50 (in general, the concentration giving 50% growth inhibition) was 0.23 µM. The “% CYP Inhibition @ 10 μM 2C9” value at CYP2C9 was 35%. Besides, the “% CYP Inhibition @ 10 μM 2D6” value at CYP2D6 was found to be 26%. The “% CYP Inhibition @ 10 μM 3A4” value at CYP3A4 stood at 22%.

With `Nc1ccc(-c2ccccc2)cc1NC(=O)c1ccc(CNC(=O)CCc2cccnc2)cc1` [Example 14a], the negative-log IC50 (pIC50) in series [1] is 7.96; on IKr ion channel, 5.43. Also, the GI50 in the series with HCT-116 was 0.337 µM. At CYP2C9, the “% CYP Inhibition @ 10 μM 2C9” value came out at 73%. Also, on CYP2D6, the “% CYP Inhibition @ 10 μM 2D6” value turned out to be 25%. Further, the “% CYP Inhibition @ 10 μM 3A4” value on CYP3A4 was 65%.

With `COC(=O)NCc1ccc(C(=O)Nc2cc(-c3ccccc3)ccc2N)cc1` [Example 14f], the “% MK-499 Binding Inhibition @ 10 μM” value at IKr ion channel turned out to be 28%. For the same compound, halving of growth in the series with HCT-116 (GI50) required 0.23 µM. Further, the “% CYP Inhibition @ 10 μM 2C9” value at CYP2C9 came to 46%. The “% CYP Inhibition @ 10 μM 2D6” value at CYP2D6 is given as 49%. Besides, the “% CYP Inhibition @ 10 μM 3A4” value at CYP3A4 is reported as 23%.

Consider `Nc1ccc(-c2ccccc2)cc1NC(=O)c1ccc(CNC(=O)C2CCCCC2)cc1` [Example 14i], for which the negative logarithm of the IC50 (pIC50) in series [1] is 7.70. The “% MK-499 Binding Inhibition @ 10 μM” value on IKr ion channel was determined as 30%. The compound further displayed a GI50 in the series on HCT-116 of 0.335 µM. Besides, the “% CYP Inhibition @ 10 μM 2C9” value at CYP2C9 amounted to 32%. In addition, the “% CYP Inhibition @ 10 μM 2D6” value at CYP2D6 is on record as 17%. In addition, at CYP3A4, the “% CYP Inhibition @ 10 μM 3A4” value is 12%.

In the case of `CCCC(=O)NCc1ccc(C(=O)Nc2cc(-c3ccccc3)ccc2N)cc1` [Example 14g], in series [1], the pIC50 was 8.00. On IKr ion channel, the “% MK-499 Binding Inhibition @ 10 μM” value was 38%. In the series with HCT-116, this compound showed a concentration for 50% growth inhibition (GI50) of 0.22 µM. For the same compound, the “% CYP Inhibition @ 10 μM 2C9” value at CYP2C9 came to 27%. At CYP2D6, the “% CYP Inhibition @ 10 μM 2D6” value turned out to be 28%. Further, the “% CYP Inhibition @ 10 μM 3A4” value at CYP3A4 worked out at 33%.

`CCC(=O)NCc1ccc(C(=O)Nc2cc(-c3ccccc3)ccc2N)cc1` [Example 14h]: in series [1], the pIC50 is 8.00. Besides, on IKr ion channel, the “% MK-499 Binding Inhibition @ 10 μM” value is 24%. The compound also displayed a 50% growth inhibitory concentration (GI50) in the series on HCT-116 of 0.15 µM. Also, the “% CYP Inhibition @ 10 μM 2C9” value on CYP2C9 turned out to be 28%. Moreover, on CYP2D6, the “% CYP Inhibition @ 10 μM 2D6” value amounted to 38%. At CYP3A4, the “% CYP Inhibition @ 10 μM 3A4” value stood at 30%.

Consider `Nc1ccc(-c2ccccc2)cc1NC(=O)c1ccc(CNC(=O)OCc2ccccn2)cc1` [Example 14b], for which, in series [1], the pIC50 is 8.10. Further, the “% MK-499 Binding Inhibition @ 10 μM” value at IKr ion channel was found to be 51%. The same compound showed a 50% growth inhibitory concentration (GI50) with HCT-116 of 0.435 µM. For the same compound, at CYP2C9, the “% CYP Inhibition @ 10 μM 2C9” value came out at 67%. The “% CYP Inhibition @ 10 μM 2D6” value at CYP2D6 stood at 29%. The “% CYP Inhibition @ 10 μM 3A4” value on CYP3A4 stood at 38%.
